{"source": "ChEMBL document CHEMBL5226378", "about": "“Transformation of Renieramycin M into Renieramycins T and S by Intramolecular Photoredox Reaction of 7-Methoxy-6-methyl-1,2,3,4-tetrahydroisoquinoline-5,8-dione Derivatives” (J Nat Prod, 2023)", "key": {"[1]": {"test_system": "HCT-116", "test": "Cytotoxicity against human HCT-116 cells assessed as inhibition of cell growth incubated for 4 days by CCK-8 assay", "type": "functional, cell-based", "conditions": "HCT-116, 96 h"}, "[2]": {"test_system": "DU-145", "test": "Cytotoxicity against human DU-145 cells assessed as inhibition of cell growth incubated for 4 days by CCK-8 assay", "type": "functional, cell-based", "conditions": "DU-145, 96 h"}}, "data": [{"molecule": "C/C=C(/C)C(=O)OC[C@H]1c2c(c(OC(C)=O)c(C)c3c2OCO3)C[C@H]2[C@H]3C4=C(C[C@@H]([C@H](C#N)N12)N3C)C(=O)C(C)=C(OC)C4=O", "values": [{"measurement": "IC50", "setting": "[1]", "result": 0.032, "unit": "µM"}, {"measurement": "IC50", "setting": "[2]", "result": 0.032, "unit": "µM"}]}, {"molecule": "C/C=C(/C)C(=O)OC[C@H]1c2c(c(O)c(C)c3c2OCO3)C[C@H]2[C@H]3C4=C(C[C@@H]([C@H](C#N)N12)N3C)C(=O)C(C)=C(OC)C4=O", "values": [{"measurement": "IC50", "setting": "[1]", "result": 0.082, "unit": "µM"}, {"measurement": "IC50", "setting": "[2]", "result": 0.05, "unit": "µM"}]}, {"molecule": "COC1=C(C)C(=O)C2=C(C1=O)[C@@H]1[C@@H]3Cc4c(OC(C)=O)c(C)c5c(c4[C@H](CNC(=O)C(C)=O)N3[C@@H](C#N)[C@H](C2)N1C)OCO5", "values": [{"measurement": "IC50", "setting": "[1]", "result": 0.027, "unit": "µM"}, {"measurement": "IC50", "setting": "[2]", "result": 0.006, "unit": "µM"}]}, {"molecule": "COC1=C(C)C(=O)C2=C(C1=O)[C@@H]1[C@@H]3CC4=C(C(=O)C(O)=C(C)C4=O)[C@H](CNC(=O)C(C)=O)N3[C@@H](C#N)[C@H](C2)N1C", "values": [{"measurement": "IC50", "setting": "[1]", "result": 1.2, "unit": "µM"}, {"measurement": "IC50", "setting": "[2]", "result": 0.68, "unit": "µM"}]}, {"molecule": "C/C=C(/C)C(=O)OC[C@H]1c2c(c(O)c(C)c3c2OCO3)C[C@H]2CN(C)C[C@H](C#N)N21", "values": [{"measurement": "IC50", "setting": "[1]", "result": "> 20", "unit": "µM"}, {"measurement": "IC50", "setting": "[2]", "result": "> 20", "unit": "µM"}]}, {"molecule": "COC1=C(C)C(=O)C2=C(C1=O)[C@@H]1[C@@H]3Cc4c(O)c(C)c5c(c4[C@H](CNC(=O)C(C)=O)N3[C@@H](C#N)[C@H](C2)N1C)OCO5", "values": [{"measurement": "IC50", "setting": "[1]", "result": 0.23, "unit": "µM"}, {"measurement": "IC50", "setting": "[2]", "result": 0.14, "unit": "µM"}]}, {"molecule": "C/C=C(/C)C(=O)OC[C@H]1C2=C(C[C@H]3CN(C)C[C@H](C#N)N31)C(=O)C(C)=C(OC)C2=O", "values": [{"measurement": "IC50", "setting": "[1]", "result": 2.2, "unit": "µM"}, {"measurement": "IC50", "setting": "[2]", "result": 7.3, "unit": "µM"}]}, {"molecule": "C/C=C(/C)C(=O)OC[C@H]1C2=C(C[C@H]3[C@H]4C5=C(C[C@@H]([C@H](C#N)N13)N4C)C(=O)C(C)=C(OC)C5=O)C(=O)C(C)=C(OC)C2=O", "note": "[RENIERAMYCIN M]", "values": [{"measurement": "IC50", "setting": "[1]", "result": 0.018, "unit": "µM"}, {"measurement": "IC50", "setting": "[2]", "result": 0.004, "unit": "µM"}]}, {"molecule": "C/C=C(/C)C(=O)OC[C@H]1C2=C(C[C@H]3[C@H]4C5=C(C[C@@H]([C@H](C#N)N13)N4C)C(=O)C(C)=C(OC)C5=O)C(=O)C(C)=C(O)C2=O", "note": "[RENIERAMYCIN S]", "values": [{"measurement": "IC50", "setting": "[1]", "result": 0.16, "unit": "µM"}, {"measurement": "IC50", "setting": "[2]", "result": 0.072, "unit": "µM"}]}, {"molecule": "COC1=C(C)C(=O)C2=C(C1=O)[C@@H]1[C@@H]3CC4=C(C(=O)C(OC)=C(C)C4=O)[C@H](CNC(=O)C(C)=O)N3[C@@H](C#N)[C@H](C2)N1C", "note": "[SAFRAMYCIN A]", "values": [{"measurement": "IC50", "setting": "[1]", "result": 0.02, "unit": "µM"}, {"measurement": "IC50", "setting": "[2]", "result": 0.008, "unit": "µM"}]}]}
